We go through 51 compounds from patent US8242118B2, “Arylsulfonamide derivatives for use as CCR3 antagonists in the treatment of inflammatory and immunological disorders” (Axikin Pharmaceuticals Inc., priority 2001, dated 2012).

In one series the target is T1, Human CCR3 (Homo sapiens, UniProt P51677).
T1 construct: The cloned CCR3 cDNA was constructed with pcDNA3 vector and transfected into a IC562 cell line; expressed in transfected cells
T1 sequence (P51677 1-355): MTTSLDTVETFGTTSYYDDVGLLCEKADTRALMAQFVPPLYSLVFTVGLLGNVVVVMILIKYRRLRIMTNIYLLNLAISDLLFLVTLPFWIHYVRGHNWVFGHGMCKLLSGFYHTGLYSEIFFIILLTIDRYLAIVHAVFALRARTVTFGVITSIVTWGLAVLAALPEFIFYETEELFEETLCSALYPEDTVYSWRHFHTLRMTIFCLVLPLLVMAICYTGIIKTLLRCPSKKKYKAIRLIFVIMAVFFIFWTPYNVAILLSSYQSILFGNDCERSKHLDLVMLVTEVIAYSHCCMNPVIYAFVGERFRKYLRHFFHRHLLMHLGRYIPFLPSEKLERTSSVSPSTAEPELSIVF
Kind of series: Calcium mobilization assay, eotaxin-stimulated. The following applies: human CCR3-transformed K562 cells, 10 nM eotaxin; compounds of about 40 to 90% purity; read-out: Activity grade Ca2+ (IC50 class). Format: cell-based. The procedure, abridged:
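K562 cells transfected with human CCR3, pretreated 20–24 h with 5 mM sodium butyrate, loaded with Fluo-3AM. Compound added 10 min before stimulation with 10 nM (final) eotaxin; cytoplasmic calcium read over 60 s by FDSS, IC50 from inhibition curve.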

As usually defined, the IC50 is the midpoint of a concentration-inhibition curve. As usually defined, the melting point is the temperature of the solid-liquid transition.

Each structure is given as a SMILES string. Some results are limits rather than exact numbers.

Turning to `O=[N+]([O-])c1ccc(Sc2cc(Cl)cc(Cl)c2)c(S(=O)(=O)N2CCC(N3CCCCC3)CC2)c1` [Example 2-3], the melting point is 191 to 192 °C. Further, the IC50 on Human CCR3 is below 1000 nM.

In turn, `Cl.N[C@@H]1CCN(S(=O)(=O)c2cc([N+](=O)[O-])ccc2Sc2cc(Cl)cc(Cl)c2)C1` [Example 2-11] showed a melting point of 270 °C. In addition, the IC50 on Human CCR3 is below 1000 nM. On to `N[C@H]1CCN(S(=O)(=O)c2cc([N+](=O)[O-])ccc2Sc2cc(Cl)cc(Cl)c2)C1` [Example 2-12], for which the melting point was 263 °C. In addition, the 50% inhibitory concentration (IC50) at Human CCR3 was below 1000 nM. As for `CC1CCCCN1CCCNS(=O)(=O)c1cc([N+](=O)[O-])ccc1Sc1cc(Cl)cc(Cl)c1` (stereo not shown) [Example 2-13], the IC50 at Human CCR3 was below 1000 nM. For the compound `O=[N+]([O-])c1ccc(Sc2cc(Cl)cc(Cl)c2)c(S(=O)(=O)N2CCC(N3CCCC3)CC2)c1` [Example 2-22], the melting point was 213 °C. Moreover, at Human CCR3, the IC50 is below 1000 nM. In the case of `CN(C)CCN(C)S(=O)(=O)c1cc([N+](=O)[O-])ccc1Sc1cc(Cl)cc(Cl)c1` [Example 2-23], the melting point stood at 102 °C. Besides, on Human CCR3, the IC50 was below 1000 nM. Consider `O=[N+]([O-])c1ccc(Sc2cc(Cl)cc(Cl)c2)c(S(=O)(=O)NCCN2CCCCC2)c1` [Example 2-24], for which the IC50 at Human CCR3 was below 1000 nM. For the compound `O=[N+]([O-])c1ccc(Nc2cc(Cl)cc(Cl)c2)c(S(=O)(=O)N2CCNCC2)c1` [Example 3-2], the IC50 on Human CCR3 is below 1000 nM. Still for that read-out and setting: the value for `Cc1ccccc1Nc1ccc([N+](=O)[O-])cc1S(=O)(=O)N1CCNCC1` [Example 3-3] was 1000 to 10000 nM; that for `Cc1cccc(Nc2ccc([N+](=O)[O-])cc2S(=O)(=O)N2CCNCC2)c1` [Example 3-4] was 1000 to 10000 nM; that for `Cc1ccc(Nc2ccc([N+](=O)[O-])cc2S(=O)(=O)N2CCNCC2)cc1` [Example 3-5] was 1000 to 10000 nM. With `O=[N+]([O-])c1ccc(Nc2ccccc2Cl)c(S(=O)(=O)N2CCNCC2)c1` [Example 3-6], the IC50 on Human CCR3 fell in the range of 1000 to 10000 nM. In the case of `Cc1cc(C)cc(Oc2ccc([N+](=O)[O-])cc2S(=O)(=O)NCCN2CCCCC2)c1` [Example 4-2], the IC50 on Human CCR3 was below 1000 nM. Same read-out and setting: the value for `Cc1cc(C)cc(Oc2ccc([N+](=O)[O-])cc2S(=O)(=O)NCCN2CCOCC2)c1` [Example 4-3] was below 1000 nM. The compound `Cc1cc(C)cc(Oc2ccc([N+](=O)[O-])cc2S(=O)(=O)N2CCN(C)CC2)c1` [Example 4-4] returned a melting point of 131 to 132 °C. The IC50 on Human CCR3 was below 1000 nM.

Take `CCN1CCN(S(=O)(=O)c2cc([N+](=O)[O-])ccc2Oc2cc(C)cc(C)c2)CC1` [Example 4-5]: the melting point lay within 111 to 112 °C. Also, the IC50 on Human CCR3 is below 1000 nM. On the same counts, the results for `Cc1cc(C)cc(Oc2ccc([N+](=O)[O-])cc2S(=O)(=O)N2CCN(C3CCCCC3)CC2)c1` [Example 4-6] are 190 to 192 °C and below 1000 nM. On the same counts, the results for `Cc1cc(C)cc(Oc2ccc([N+](=O)[O-])cc2S(=O)(=O)N2CCN(c3ccccc3)CC2)c1` [Example 4-7] are 168 to 169 °C and above 10000 nM. On the same counts, the results for `Cc1ccc(N2CCN(S(=O)(=O)c3cc([N+](=O)[O-])ccc3Oc3cc(C)cc(C)c3)CC2)cc1` [Example 4-8] are 168 to 170 °C and above 10000 nM. `CCN1CCC(N(CC)S(=O)(=O)c2cc([N+](=O)[O-])ccc2Oc2cc(C)cc(C)c2)C1` (stereo not shown) [Example 4-12] came in with a melting point of 86 to 88 °C. The IC50 at Human CCR3 was below 1000 nM. Take `Cc1cc(C)cc(Oc2ccc([N+](=O)[O-])cc2S(=O)(=O)N2CC[C@@H](N(C)C)C2)c1` [Example 4-13]: the melting point is 115 to 116 °C. For the same compound, the IC50 at Human CCR3 was below 1000 nM. On the same counts, the results for `Cc1cc(C)cc(Oc2ccc([N+](=O)[O-])cc2S(=O)(=O)N(C)CCN(C)C)c1` [Example 4-14] are 75 to 77 °C and below 1000 nM. In turn, `Cc1cc(C)cc(Oc2ccc([N+](=O)[O-])cc2S(=O)(=O)N2CCN(C(C)C)CC2)c1` [Example 4-15] had a melting point of 129 to 131 °C. Besides, the IC50 on Human CCR3 is below 1000 nM. On the same counts, the results for `CCC(C)N1CCN(S(=O)(=O)c2cc([N+](=O)[O-])ccc2Oc2cc(C)cc(C)c2)CC1` (stereo not shown) [Example 4-16] are 134 to 135 °C and below 1000 nM. The compound `CCCC(C)N1CCN(S(=O)(=O)c2cc([N+](=O)[O-])ccc2Oc2cc(C)cc(C)c2)CC1` (stereo not shown) [Example 4-17] showed a melting point of 93 to 95 °C. Further, at Human CCR3, the 50% inhibitory concentration (IC50) was below 1000 nM. The like results for `CCC(CC)N1CCN(S(=O)(=O)c2cc([N+](=O)[O-])ccc2Oc2cc(C)cc(C)c2)CC1` [Example 4-18] were, in that order, 131 to 132 °C and 1000 to 10000 nM. On the same counts, the results for `Cc1cc(C)cc(Oc2ccc([N+](=O)[O-])cc2S(=O)(=O)N2CCN(C3CCCC3)CC2)c1` [Example 4-19] are 169 to 171 °C and below 1000 nM.

Regarding `CN(C)CCN(C)S(=O)(=O)c1cc([N+](=O)[O-])ccc1Oc1cc(Cl)cc(Cl)c1` [Example 4-20], the melting point was in the range of 105 to 107 °C. Further, the IC50 at Human CCR3 was below 1000 nM. The like results for `CCN(CC)C1CCN(S(=O)(=O)c2cc([N+](=O)[O-])ccc2Oc2cc(Cl)cc(Cl)c2)C1` (stereo not shown) [Example 4-21] were, in that order, 120 to 121 °C and below 1000 nM.

With `O=[N+]([O-])c1ccc(Oc2cc(Cl)cc(Cl)c2)c(S(=O)(=O)N2CCC[C@H]2CN2CCCC2)c1` [Example 4-22], the melting point was 200 to 202 °C. Besides, the IC50 on Human CCR3 is below 1000 nM. On to `CN1CCC(N(C)S(=O)(=O)c2cc([N+](=O)[O-])ccc2Oc2cc(Cl)cc(Cl)c2)C1` (stereo not shown) [Example 4-23], for which the half-inhibitory concentration (IC50) at Human CCR3 is below 1000 nM. `Cc1cc(C)cc(Oc2ccc([N+](=O)[O-])cc2S(=O)(=O)N2CCC(N(C)C)CC2)c1.Cl` [Example 4-24] had a melting point of 262 to 264 °C. The IC50 at Human CCR3 was below 1000 nM. As for `Cc1cc(C)cc(Oc2ccc([N+](=O)[O-])cc2S(=O)(=O)N2CCN(CC3CCCO3)CC2)c1` (stereo not shown) [Example 4-26], the melting point was in the range of 178 to 179 °C. Besides, on Human CCR3, the IC50 is below 1000 nM. `O=[N+]([O-])c1ccc(Oc2cc(Cl)cc(Cl)c2)c(S(=O)(=O)N2CCN(CC3CCCO3)CC2)c1` (stereo not shown) [Example 4-27] yielded a melting point of 182 to 183 °C. Besides, at Human CCR3, the IC50 was below 1000 nM.

Compound `O=[N+]([O-])c1ccc(Oc2cc(Cl)cc(Cl)c2)c(S(=O)(=O)N2CCC(N3CCCCC3)CC2)c1` [Example 4-29] returned a melting point of 173 to 174 °C. In addition, the IC50 at Human CCR3 was below 1000 nM. With `Cc1cc(C)cc(Oc2ccc([N+](=O)[O-])cc2S(=O)(=O)N2CCN(CCC(F)(F)F)CC2)c1` [Example 4-33], the IC50 on Human CCR3 is below 1000 nM. In the case of `O=[N+]([O-])c1ccc(Oc2cc(Cl)cc(Cl)c2)c(S(=O)(=O)N2CCN(CCC(F)(F)F)CC2)c1` [Example 4-34], the melting point fell in the range of 166 to 167 °C. On Human CCR3, the IC50 is below 1000 nM.

Compound `COCCCN1CCN(S(=O)(=O)c2cc([N+](=O)[O-])ccc2Oc2cc(Cl)cc(Cl)c2)CC1` [Example 4-36] returned a melting point of 145 °C. Besides, on Human CCR3, the IC50 is below 1000 nM.

In the case of `O=[N+]([O-])c1ccc(Oc2cc(Cl)cc(Cl)c2)c(S(=O)(=O)N2CCC(N3CCCC3)C2)c1` (stereo not shown) [Example 4-38], the IC50 at Human CCR3 is below 1000 nM. `Cc1cc(C)cc(Oc2ccc(N)cc2S(=O)(=O)N2CCNCC2)c1.O=C(O)C(F)(F)F` [Example 5-3]: the melting point is 133 to 135 °C. Further, on Human CCR3, the IC50 is above 10000 nM.

`CCN1CCN(S(=O)(=O)c2cc(Cl)ccc2Oc2cc(C)cc(C)c2)CC1` [Example 5-4]: the melting point is 120 to 122 °C. Besides, the IC50 at Human CCR3 was below 1000 nM. As for `CCN1CCN(S(=O)(=O)c2cc(I)ccc2Oc2cc(C)cc(C)c2)CC1` [Example 5-5], the melting point lay in the range of 133 to 134 °C. The IC50 at Human CCR3 was below 1000 nM.

In turn, `Cc1cc(C)cc(Oc2ccc(I)cc2S(=O)(=O)N2CCNCC2)c1.Cl` [Example 5-6] yielded a melting point of 241 to 243 °C. For the same compound, the half-inhibitory concentration (IC50) at Human CCR3 is below 1000 nM. `CC(=O)Nc1ccc(Oc2cc(C)cc(C)c2)c(S(=O)(=O)N2CCNCC2)c1` [Example 7-2]: the IC50 on Human CCR3 was above 10000 nM. With `Cc1cc(C)cc(Oc2ccc(NC(=O)C(C)(C)C)cc2S(=O)(=O)N2CCNCC2)c1` [Example 7-3], the IC50 at Human CCR3 is above 10000 nM. On to `Cc1cc(C)cc(Oc2ccc(NC(=O)CC(C)C)cc2S(=O)(=O)N2CCNCC2)c1` [Example 7-4], for which the IC50 at Human CCR3 was above 10000 nM. On the same count and under the same terms, the value for `Cc1cc(C)cc(Oc2ccc(NC(=O)c3ccccc3)cc2S(=O)(=O)N2CCNCC2)c1` [Example 7-5] was above 10000 nM; that for `Cc1ccc(C(=O)Nc2ccc(Oc3cc(C)cc(C)c3)c(S(=O)(=O)N3CCNCC3)c2)cc1` [Example 7-6] was above 10000 nM. Still for that read-out and setting: the value for `Cc1cc(C)cc(Oc2ccc(NC(=O)c3cccc4ccccc34)cc2S(=O)(=O)N2CCNCC2)c1` [Example 7-7] was 1000 to 10000 nM; that for `Cc1cc(C)cc(Oc2ccc(NC(=O)CCc3ccccc3)cc2S(=O)(=O)N2CCNCC2)c1` [Example 7-8] was above 10000 nM; that for `Cc1cc(C)cc(Oc2ccc(NC(=O)c3cccs3)cc2S(=O)(=O)N2CCNCC2)c1` [Example 7-9] was above 10000 nM.
